The assay relates to normal, non-HF ovine model. The assay can be described thus: Heartbeat-by-heartbeat changes in right and left ventricle contractility (max dP/dt as surrogate) after an injection. It is filed as in vivo. The conditions noted are these: pressure max (dP/dt) used as surrogate for contractility, after injection (calcium: 5 mL). The source says:
The correlation was a heartbeat-by-heartbeat analysis. Pressure measurements, taken by a Millar catheter comprising a MEMS pressure sensor, in units of max (dP/dt) was used as a surrogate for contractility.
The first change, a dobutamine injection, provided a very high contractility increase greater than 500%. The average correlation between right ventricle contractility and left ventricle contractility was very good at 0.91, where 1.00 is a perfect correlation. Accordingly, if a subject is given a dobutamine injection, measuring changes to right ventricle contractility can provide accurate information about changes to left ventricle contractility. The first change was repeated three times.
The second change, calcium injection at 5 mL, provided a contractility increase of about 20%. […] The average correlation between right […] contractility and left ventricle contractility using a Millar (MEMS) sensor on a catheter was very good at 0.91. The average correlation between right ventricle contractility and left ventricle contractility using a fluid-filled lumen of a Swan-Ganz catheter in communication with an external pressure sensor was also very good at 0.87. Accordingly, under certain circumstances such as measurement of an animal (normal, non-HF ovine model) model, if a subject is given a calcium injection, measuring changes to right ventricle contractility with a MEMS sensor or a fluid filled lumen can provide accurate information about changes to left ventricle contractility.

Here are results for two compounds from patent US20250381412A1, “METHODS AND SYSTEMS FOR NEUROMODULATION” (Cardionomix, Inc., priority 2022, published 2025).

As to `[Ca+2]` [Calcium, calcium], the “Contractility % Increase” value is about 20%. Besides, the “Contractility % Increase” value (listed as calcium) is reported as “about 20%”.

Consider `CC(CCc1ccc(O)cc1)NCCc1ccc(O)c(O)c1` (stereo not shown) [Dobutamine Injection, dobutamine], for which the “Contractility % Increase” value was over 500%. Further, the “Contractility % Increase” value (listed as dobutamine) was “greater than 500%”.
